# Reference: patent US20180236089A1, “RADIATION EMITTING PEPTIDE NUCLEIC ACID CONJUGATES AND USES THEREOF FOR DIAGNOSIS, IMAGING, AND TREATMENT OF DISEASES, CONDITIONS AND DISORDERS” (Yissum Research Development Company of the Hebrew …, priority 2015, published 2018)
# Values joined by “and” are separate entries in the source; they are usually repeats but may differ in a detail not shown here. Equal entries are not always repeated. Where no end group is shown, it is not given here. [ ]: non-standard residue; d: D form. BisQ = dye (BisQ) placed in the PNA in place of a base
# How the values were obtained:
# [1] = UV-Vis absorption of BisQ, TO and PNA FIT probes, alone or hybridized to DNA; type: physicochemical; conditions: for λmaxabs: UV-Vis spectrum, maximal absorption
# Panc-1 cells = assay: Hybridization and imaging in living cells (confocal microscopy), Panc-1; type: cell-based, human; conditions: Panc-1 expressing mutated KRAS, 0.5 μM, 3 hours
# Protocol: (§1) Three cell lines were used: Panc-1, BxPC-3 (human pancreatic carcinoma, epithelial-like), and HT-29 (human colon adenocarcinoma grade II). Cell lines were purchased from the American Type Culture Collection (ATCC, Manassas, Va., USA). Panc-1 and HT-29 expressing mutated and wild type KRAS, respectively, were cultured (37° C., 5% CO2), in DMEM medium and supplemented with 10% fetal calf serum, 2 mM L-glutamine, and 0.1 mg/mL Streptomycin (Beit Haemek Biological Industries, Israel). BxPC-3 cells expressing wild type KRAS were cultured in RPMI 1640 medium supplemented with 10% fetal calf serum, 2 mM L-glutamine, and 0.1 mg/mL Streptomycin.
# (§2) Twenty four hours prior to PNA addition, Panc-1, HT-29, and BxPC-3 were plated separately on chamber slides (Ibidi GmbH, Munich, Germany) until reaching 70-80% confluence.
# (§3) Before adding the PNAs, the medium was replaced and the cells were incubated (37° C., humidified atmosphere containing 5% CO2) with 0.5 μM of PNA1 and PNA2 in complete medium. Cells were washed with PBS (×3) prior to cell imaging and the intracellular fluorescence was measured after 3 hours by confocal microscopy. Design and synthesis of a new surrogate base (BisQ) with the unique feature of far-red emission. BisQ was introduced into PNAs that targets the mutated kRAS oncogene.
# HT-29 cells = assay: Hybridization and imaging in living cells (confocal microscopy), HT-29; type: cell-based, human; conditions: HT-29 expressing wild type KRAS, 0.5 μM, 3 hours
# Protocol: as §1, §2, §3
# BxPC-3 cells = assay: Hybridization and imaging in living cells (confocal microscopy), BxPC-3; type: cell-based, human; conditions: BxPC-3 expressing wild type KRAS, 0.5 μM, 3 hours
# Protocol: as §1, §2, §3
Molecule,εmax [1],λmaxabs [1],intracellular red fluorescence (Panc-1 cells),intracellular red fluorescence (HT-29 cells),intracellular red fluorescence (BxPC-3 cells)
"CN1C(=Cc2cc[n+](C)c3ccccc23)Sc2ccccc21 [TO, thiazole orange, reference compound]","43,000 M^−1cm^−1",505 nm,–,–,–
"(D-Lys)4-CCTCGACT[BisQ]CCGCATCC-NH2 (chain 1 [dK][dK][dK][dK]CCTCGACT-BisQ; numbers in words are those of the source; cysteine pairing not given here; also: PNA (peptide nucleic acid), BisQ joins chain 1 and chain 2 within one strand) [PNA2, BisQ paired with T; PNA FIT probe targeting mutated KRAS]","82,219 M^−1cm^−1",593 nm,red emission solely in Panc-1 cells,red emission solely in Panc-1 cells,red emission solely in Panc-1 cells
"(D-Lys)4-CCTCGA[BisQ]TACCGCATCC-NH2 (chemistry not fully specified) [PNA1, BisQ paired with G; PNA FIT probe targeting mutated KRAS]","83,000 M^−1cm^−1",591 nm and 588 nm,–,–,–
Fmoc-Aeg(Dy)-OH [BisQ],"41,370 M^−1cm^−1",591 nm,–,–,–
